In ChEMBL document CHEMBL5465560, “Selectivity Literature for EUbOPEN Chemogenomic Library” (2024):

Tests used:
[1] = molecular target: T1, Tyrosine-protein kinase Mer (Homo sapiens) (UniProt Q12866); details: at 10 µM
T1 sequence (whole entry): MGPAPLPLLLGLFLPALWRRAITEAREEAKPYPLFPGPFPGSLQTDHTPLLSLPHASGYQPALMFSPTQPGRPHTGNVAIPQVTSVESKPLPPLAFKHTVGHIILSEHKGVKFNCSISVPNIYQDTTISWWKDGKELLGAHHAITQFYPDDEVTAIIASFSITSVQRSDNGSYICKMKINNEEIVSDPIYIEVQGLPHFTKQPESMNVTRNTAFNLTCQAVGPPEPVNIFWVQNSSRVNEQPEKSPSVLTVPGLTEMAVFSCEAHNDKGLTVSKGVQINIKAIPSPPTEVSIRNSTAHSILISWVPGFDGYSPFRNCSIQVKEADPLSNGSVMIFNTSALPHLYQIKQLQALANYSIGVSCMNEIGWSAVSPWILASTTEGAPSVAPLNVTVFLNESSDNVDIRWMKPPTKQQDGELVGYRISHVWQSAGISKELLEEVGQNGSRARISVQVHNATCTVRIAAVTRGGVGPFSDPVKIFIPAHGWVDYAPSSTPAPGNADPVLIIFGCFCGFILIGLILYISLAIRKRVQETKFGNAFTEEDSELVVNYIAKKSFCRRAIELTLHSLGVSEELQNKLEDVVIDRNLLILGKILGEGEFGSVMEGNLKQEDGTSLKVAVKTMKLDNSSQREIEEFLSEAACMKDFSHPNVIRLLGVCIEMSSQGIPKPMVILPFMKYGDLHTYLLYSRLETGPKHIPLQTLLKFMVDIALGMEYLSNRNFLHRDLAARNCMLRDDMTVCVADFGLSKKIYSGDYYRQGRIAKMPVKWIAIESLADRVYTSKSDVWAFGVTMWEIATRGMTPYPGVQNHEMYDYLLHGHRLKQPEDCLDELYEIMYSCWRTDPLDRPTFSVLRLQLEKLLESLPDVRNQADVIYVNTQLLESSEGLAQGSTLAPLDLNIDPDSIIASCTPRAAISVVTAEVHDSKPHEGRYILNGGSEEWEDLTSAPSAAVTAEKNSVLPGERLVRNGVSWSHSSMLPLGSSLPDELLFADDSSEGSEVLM

[2] = molecular target: T2, Aurora kinase A (Homo sapiens) (UniProt O14965); assay: Selectivity interaction (ActivX KiNativ screen (kinase selectivity in THP-1 cell lysates)) EUB0000639a STK6; type: subcellular; details: lysate, at 5 µM
T2 sequence (whole entry): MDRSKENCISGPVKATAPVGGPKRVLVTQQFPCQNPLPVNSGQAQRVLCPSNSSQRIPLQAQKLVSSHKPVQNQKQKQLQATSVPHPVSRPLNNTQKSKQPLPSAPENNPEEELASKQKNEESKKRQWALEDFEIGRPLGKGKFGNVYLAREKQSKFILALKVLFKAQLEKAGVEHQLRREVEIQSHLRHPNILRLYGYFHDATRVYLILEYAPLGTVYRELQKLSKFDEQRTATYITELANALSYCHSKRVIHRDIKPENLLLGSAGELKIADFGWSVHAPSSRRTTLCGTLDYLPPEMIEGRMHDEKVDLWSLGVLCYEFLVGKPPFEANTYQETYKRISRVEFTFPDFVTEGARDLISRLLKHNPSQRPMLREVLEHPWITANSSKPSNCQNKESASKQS

[3] = molecular target: T3, Mitogen-activated protein kinase kinase kinase 12 (Homo sapiens) (UniProt Q12852); assay: Selectivity interaction (Ambit KINOMEscan and KiNATiv profiling in Jurkat cells) EUB0000090b MAP3K12; type: cell-based; details: at 1 µM
T3 sequence (whole entry): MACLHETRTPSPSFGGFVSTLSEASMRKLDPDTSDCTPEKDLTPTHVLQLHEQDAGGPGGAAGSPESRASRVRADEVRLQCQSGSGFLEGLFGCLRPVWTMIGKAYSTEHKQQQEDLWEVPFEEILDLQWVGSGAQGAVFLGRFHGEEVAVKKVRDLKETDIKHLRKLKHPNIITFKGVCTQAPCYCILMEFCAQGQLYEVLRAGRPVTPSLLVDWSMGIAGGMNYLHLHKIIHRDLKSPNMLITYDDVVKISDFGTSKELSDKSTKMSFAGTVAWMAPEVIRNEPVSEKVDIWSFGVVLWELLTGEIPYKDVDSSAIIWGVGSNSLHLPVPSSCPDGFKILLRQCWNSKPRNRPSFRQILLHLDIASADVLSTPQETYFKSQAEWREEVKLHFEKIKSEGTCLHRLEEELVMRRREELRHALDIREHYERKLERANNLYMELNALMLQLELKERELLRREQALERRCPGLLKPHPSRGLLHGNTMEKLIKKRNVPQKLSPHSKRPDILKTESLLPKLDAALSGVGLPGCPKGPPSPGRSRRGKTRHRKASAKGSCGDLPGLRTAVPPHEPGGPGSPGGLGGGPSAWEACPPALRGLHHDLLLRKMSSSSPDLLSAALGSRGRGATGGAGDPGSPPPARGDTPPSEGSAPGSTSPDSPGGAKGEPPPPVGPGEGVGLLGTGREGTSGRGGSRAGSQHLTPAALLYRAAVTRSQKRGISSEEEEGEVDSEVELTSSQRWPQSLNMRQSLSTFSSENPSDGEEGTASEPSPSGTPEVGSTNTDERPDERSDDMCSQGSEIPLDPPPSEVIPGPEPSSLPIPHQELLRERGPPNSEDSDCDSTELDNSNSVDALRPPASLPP

## CCN(CC)CCCCNc1ncc2cc(-c3cc(OC)cc(OC)c3)c(NC(=O)NC(C)(C)C)nc2n1
[1]
  % of control: 100%

## CC[C@@H]1[C@H](F)C(=O)N[C@@H]1COc1nccc2cc(C(N)=O)c(OC)cc12 [ZIMLOVISERTIB]
[2]
  % of inhibition: 64.4%

## CN(C)C/C=C/C(=O)Nc1ccc(C(=O)N2CCCC(Nc3ncc(Cl)c(-c4c[nH]c5ccccc45)n3)C2)cc1 (stereo not drawn)
[3]
  % of control: 89%
